Measurements as given in patent US11098039B2, “Benzodiazepine product with activity on the central nervous and vascular systems” (UNIVERSIDAD DE LA HABANA, priority 2016, dated 2021).
Entries after “also recorded” stand apart in the source; their conditions may differ.

Columns and labels:
OF-1 mice = assay: Memory loss induced by beta amyloid 25-35 peptide oligomers (in vivo); conditions: JM-20 administered 7 days after beta amyloid administration; 10 and 30 mg/kg orally for 10 days; Aβ 100 pmol i.c.v.
Description: For the different studies JM-20 was suspended in carboxymethyl cellulose (CMC) 0.05% and administered orally. Scopolamine bromide was dissolved in the 0.9% saline solution and administered intraperitoneally (1 mg/kg, 4 mL/Kg of weight). Aluminum chloride was dissolved in common drinking water for the experimental subjects and administered orally in a 500 mg/Kg peso dose, in chronic form for one month and while behavioral studies were conducted. Beta amyloid peptides (25-35) were oligomerized and made soluble according to the manufacturer's norms and administered via intracerebroventricular means at 100 pmols in 5 uL, into the right cerebral hemisphere.
In vivo experiments corresponding to the scopolamine and aluminum model used Wistar rats (males, 230-260 g), while in vivo experiments corresponding to the beta amyloid model used OF-1 mice (males, 25-30 g). All the animals came from the National Laboratory Animal Production Center (CENPALAB, Mayabeque, Cuba) and after their arrival they underwent adaptation to laboratory conditions for 7 days. […]
Subsequently we conducted in vivo studies on OF-1 mice. We assessed the effect of JM-20 on memory loss induced by beta amyloid oligomers administered 7 days after the intracerebroventricular administration of Aβ (100 pmols) during 10 days, orally in 10 and 30 mg/kg weight doses. […]

male Wistar rats [1] = assay: Cylinder test after unilateral 6-OHDA lesion of the substantia nigra pars compacta; assay type: in vivo; conditions: 6-OHDA damage, after 7 days of treatment
Description: (§1) Male adult Wistar rats were used, weighing between 200 and 250 grams at the start of the experiment, coming from the National Laboratory Animal Production Center (CENPALAB), Havana, Cuba. The animals were kept at the Center for the Research and Development of Medicines (CIDEM) in plastic translucent boxes at an average temperature of 23° C. (22±2° C.), with food and water supplies ad libitum and 12-hour periods of light and dark.
JM-20 was administered in 3 different doses: 10, 20 and 40 mg/Kg, 24 hours after inducing damage and on a daily basis for 7 days. The compound was prepared in carboxymethylcellulose (CMC) at 0.05%, intragastrically with a cannula. There were 5 experimentation groups: Group I (vehicle/saline with ascorbic acid, n=6), Group II (animals affected with 6-OHDA, n=8), Group III (animals affected with 6-OHDA and co-treated with 10 mg/Kg JM-20, n=8), Group IV (animals affected with 6-OHDA and co-treated with 20 mg/Kg JM-20, n=8) and Group V (animals affected with 6-OHDA and co-treated with 40 mg/Kg JM-20 n=8). All behavioral studies were run at 7 days.
For the purpose of proceeding to unilateral dopaminergic denervation of the striate body (right hemisphere) the rats were anesthetized with Chloral Hydrate [0.4 g/kg weight, i.p., Merck (Darmstadt, Germany)] and placed into a frame designed for stereotactic surgery (Stoelting Instruments, USA.), where they were injected in the right substantia nigra pars compacta with saline solution neurotoxin 6-OHDA-HBr (8 μg/3 μL, also containing 0.2 mg/ml of ascorbic acid as an antioxidant) (Pavón Fuentes, Nancy (2007) Efecto de la inactivación de los receptores dopaminérgicos D2 y de la manipulación del núcleo subtalámico sobre la conducta motora en modelos de hemiparkinsonismo en roedores. Doctor en Ciencias de una Especialidad, Universidad de Ciencias Médicas de La Habana). Coordinates were calculated taking Bregma as a point of reference in accordance with the Paxinos and Watson Atlas [Paxinos, G. and Watson, C., The rat brain in stereotaxic coordenates. 2nd the Academic Press. New York, 1986], referred to in Table 1. […]

male Wistar rats [2] = assay: Exploratory Activity Test (vertical exploration) after unilateral 6-OHDA lesion; assay type: in vivo; conditions: 6-OHDA damage, after 7 days of treatment, statistically different at 40 mg/Kg versus untreated injured animals
Description: as §1
JM-20 was administered in 3 different doses: 10, 20 and 40 mg/Kg, 24 hours after inducing damage and on a daily basis for 7 days. The compound was prepared in carboxymethylcellulose (CMC) at 0.05%, intragastrically with a cannula. […]
In order to assess the vertical exploratory activity of animals we used the Exploratory Activity Test; the animal is placed in a clear Plexiglas cubicle, 41×41×33 (h) cm, (UGO BASILE, MultipleActivityCage Cat. No. 47420. Data output is managed by 52050-04 Data Acquisition Software Package (Windows® based). The cubicle is supported on a robust base made of black Plexiglas that has 4 vertical steel bars with steel grooves so that the horizontal/vertical detection systems are correctly affixed. The sensors are IR light emission systems capable of registering animal movements by shapes, or rather vertical exploration. Data is monitored on a computer. […]

CCI rats = assay: Histology of sciatic nerve (Wallerian degeneration) in chronic constriction injury (CCI) model; assay type: in vivo; conditions: JM-20 20 mg/Kg p.o., repeated doses for 7 days starting Day 7 post-CCI, 14 days after surgery, H/E and luxol fast blue
From the text: We studied the effect of JM-20 on the chronic constriction of the sciatic nerve model (CCI), an NP model (Bennett M I, Rayment C, Hjermstad M, Aass N, Caraceni A, Kaasa S. Prevalence and aetiology of neuropathic pain in cancer patients: A systematic review. Pain 2012; 153:359-365) Results are presented in FIG. 19-23.
A, B and C show the longitudinal section of the sciatic nerve 5 mm distal to the lesion on CCI Sham rats, CCI treated with JM-20 and treated with vehicle respectively (H/E coloration). We can observe the increase in cellularity in CCI animals relatively compared with sham operated animals as the result of the proliferation of Schawann cells and the infiltration of macrophages and the loss of an orderly alignment of axons associated to their myelin sheathes as compared to the sham-CCI. The arrow indicates one of the many digestion chambers of Schawann cells containing a myelin ovoid (reddish oval mass). D, E, F show sections from the same animals but they are colored by the luxol fast blue (LFB) technique, a specific technique for myelin tincture.

rats = assay: 5% formalin test (tonic pain), Phase II; assay type: in vivo; conditions: Phase II (15-45 min), flumazenil pre-treatment study
Description: We studied the effect of JM-20 (10, 20, 40 mg/Kg, p.o) on behaviors related to pain in a tonic pain model (5% formalin test) in rats. (Dubuisson D, Dennis S G. The formalin test: a quantitative study of the analgesic effects of morphine, meperidine and brain-stem stimulation in rats and cats. Pain 1977; 4:161-174).
Each column represents the reaction time of 6-10 animals per group as the mean±EEM, * P<0.05, ***P<0.001 represents the statistical differences between treated and control groups (only vehicle), ****P<0.05 represents statistical differences between groups treated with diazepam in the presence or absence of flumazenil, 1p<0.05 represents statistical differences between groups treated with JM-20 in the presence or absence of flumazenyl.

## CCOC(=O)C1=C(C)NC2=C(C=Nc3ccccc3N2)C1c1ccccc1[N+](=O)[O-] (stereo not shown) [JM-20, 3-etoxicarbonil-2-methyl-4-(2-nitrofeenil)-4,11-dihydro-1H-pirido[2,3-b][1,5] benzodiacepine]
OF-1 mice
  memory loss induced by beta amyloid 25-35 peptide oligomers: reverts memory loss
Male Wistar rats [1]; JM-20 40 and 20 mg/Kg
  use of the paw contralateral to the damage: increased use of the paw contralateral to the damage; also recorded: increased use of contralateral leg
Male Wistar rats [1]; both doses of JM-20 (40 and 20 mg/Kg), normal values
  use of the ipsilateral paw: ~50%
Male Wistar rats [1]; versus injured animals without treatment
  % of asymmetry (cylinder test), motor damage: diminished motor damage; also recorded: decrease in motor damage
Male Wistar rats [2]
  vertical exploration: increased their vertical exploration
CCI rats
  histological changes induced by CCI (Wallerian degeneration): nerve fiber disorganization, cell number, myelin sheath degradation: reduced disorganization of the nerve fibers induced by CCI; also recorded: Reduction in CCI-induced nerve fiber disruption and cell count increase and myelin sheath degradation
rats
  effect on Phase II of the 5% formalin test: antihypernociceptive effect
